Reference: patent publication US4031235A, “Insecticidal substituted acetate compounds” (Sumitomo Chemical Company, Limited, priority 1972, dated 1977)
In brackets after ≈: the same amount, converted by molar mass. Like-named read-outs stand apart in the source and are kept apart here.

Experiments:
Type in all cases: in vivo
[1] = system: adult mosquitoes (Culex pipiens); test: Knock-down of adult mosquitoes by 0.2% oil preparation (Experimental Example 4); conditions: read-out: mosquitoes knocked down
Description: (§1) 0.2% oil preparation was prepared from each of the compounds (1), (2), (8), (14), (22), (25), (26), (27), (51), (62), (73), (82), (86), (88), to (90), (92), (94), (96), (111), (119), (121), (165), (175), (180), (184), (185), (195), (200), (201), and (208) and allethrin as a control using deodorized kerosene.

oriental house flies [2] = test: Activity on knock-down against oriental house flies (Experimental Example 5); conditions: 0.2% oil preparation, 0.7 ml, 1.5 Kg/cm^2, (70 cm)^3 glass box
Description: as §1
20 oriental house flies per group were released in a (70 cm)^3 volume glass box and sprayed with each of the oil preparations prepared in Experimental Example 4 from the compounds of Table 3 below and allethrin in an amount of 0.7 ml under a pressure of 1.5 Kg/cm^2.

[3] = system: Larvae of Mosquito (Culex pipiens); test: Insecticidal activity on larvae of mosquito (Experimental Example 2); conditions: 24 h, read-out: LC50 (50% lethal concentration)
Description: An emulsifiable concentrate was prepared by blending each of the compounds (1) to (300) of the present invention, xylol and Sorpol SM-200 (trade name; manufactured by Toho Chemical Co., Ltd.) in a proportion of 25%, 50% and 25% (by weight), respectively. 20 to 25 day-old rice plants after seeding were grown in pots and sprayed with each 300-fold dilute solution of the emulsifiable concentrates thus prepared and a 300-fold dilute solution of carbaryl 30% wettable powder diluted with water as a control commercial agent in an amount of 10 ml/pot in each case and then the pots were covered by a cylindrical metal net. 15 small brown planthoppers (Delphacodes striatella Fallen) per group were released in each of the pots treated with carbaryl wettable powder, and compound (1) to (21) and (102) to (110), while 15 green rice leafhopper (Nephotettix bipuntatus cincticeps Uhler) per group were released in each of the pots treated with the carbaryl wettable powder and compounds (22) to (101) and (111) to (300).
Of the emulsifiable concentrates prepared in Experimental Example 1, each of those prepared from the compounds of Table 1 below was diluted with water to each of test concentrations and a 200 ml portion thereof was added to a 300 ml volume beaker. 30 larvae of mosquito per group were released in each of the beaker and allowed to stand for 1 day. Survival was observed and a LC50 (50% lethal concentration) was determined by calculating a percent killing in each case. As a control, lindane emulsifiable concentrate was used.

oriental house flies [4] = test: Potentiation of insecticidal activity by addition of piperonyl butoxide, topical application (Experimental Example 6); conditions: piperonyl butoxide 5 times active ingredient; acetone solution on thoracic dorsal plate
Description: To each of the compounds (22), (51), (62), (63), (82), (86), (125), (150), (160), (176), (177), (178), (184), (185), (191), (195), (200), (201), (204), (208), (210), (212) and (226) was added piperonyl butoxide in an amount of 5 times that of the active ingredient, respectively to prepare an acetone solution having a given concentration. Each of the thus prepared acetone solutions was applied onto a thoracic dosal plate of oriental house flies using a microshringe to observe a synergestic effect on insecticidal activity by piperonyl butoxide.

[5] = 0.2% oil preparation, 0.7 ml, 1.5 Kg/cm^2, (70 Cm)^3 glass box

## C#CCc1ccc(C(C#C)OC(=O)C(CC)c2ccc(OC)cc2)o1 (stereo not drawn) [compound 94, 5'-Propargyl-α'-ethynylfurfuryl-α-ethyl-4-methoxyphenylacetate]
[1]; [5]
  pest or weed control at 0.2 %: > 80%

## CCC(C(=O)OCc1coc(Cc2ccco2)c1)c1ccc(Br)cc1 (stereo not drawn) [compound 175]
[1]; [5]
  pest or weed control at 0.2 %: > 80%
Oriental house flies [2]
  KT50 (50% knock-down time): 152 s

## COc1ccc(C(C(=O)OCN2C(=O)C3=C(CCCC3)C2=O)C(C)C)cc1 (stereo not drawn) [compound 73, 3',4',5',6'-Tetrahydrophthalimidomethyl-α-isopropyl-p-methoxyphenylacetate]
[1]; [5]
  pest or weed control at 0.2 %: > 80%

## CCC(C(=O)OCc1coc(Cc2ccccc2)c1)c1ccccc1C (stereo not drawn) [compound 110, 5'-Benzyl-3'-furylmethyl-α-ethyl-2-methylphenylacetate]
[3]
  LC50: 12.5 ng/mL (≈ 0.0359 µM)

## CCc1ccc(C(C(=O)OCc2cccc(Oc3ccccc3)c2)C(C)C)cc1 (stereo not drawn) [compound 215]
[3]
  LC50: 13.2 ng/mL (≈ 0.034 µM)

## C=C(C)C(C(=O)OCc1cccc(Oc2ccccc2)c1)c1ccc(OC)cc1C (stereo not drawn) [compound 96, 3'-Phenoxybenzyl-α-isopropenyl-2-methyl-4-methoxyphenylacetate]
[1]; [5]
  pest or weed control at 0.2 %: > 80%
Oriental house flies [2]
  KT50 (50% knock-down time): 92 s

## CC(C)C(C(=O)OCc1coc(Cc2ccccc2)c1)c1ccc(Br)cc1 (stereo not drawn) [compound 212]
[3]
  LC50: 3.7 ng/mL (≈ 0.00866 µM)
Oriental house flies [4]
  Potentiation magnification of insecticidal activity by the addition of piperonyl butoxide: 5.0

## C#CCc1ccc(C(C#C)OC(=O)C(c2ccc(C)cc2)C(C)C)o1 (stereo not drawn) [compound 160]
Oriental house flies [4]
  Potentiation magnification of insecticidal activity by the addition of piperonyl butoxide: 7.2

## C=C(C)C(C(=O)OCc1coc(Oc2ccccc2)c1)c1ccc(C)cc1 (stereo not drawn) [compound 115, 5'-Phenoxy-3'-furylmethyl-α-isopropenyl-4-methyl phenylacetate]
[3]
  LC50: 5 ng/mL (≈ 0.0138 µM)

## C=C(C)C(C(=O)OCc1cccc(Oc2ccccc2)c1)c1cccc(Cl)c1 (stereo not drawn) [compound 120, 3'-Phenoxybenzyl-α-isopropenyl-3-chlorophenylacetate]
[3]
  LC50: 4 ng/mL (≈ 0.0102 µM)

## CCC(C(=O)OCc1cccc(Oc2ccccc2)c1)c1ccc(OC(C)=O)cc1 (stereo not drawn) [compound 25, 3'-Phenoxybenzyl-α-ethyl-4-acetoxyphenylacetate]
[1]; [5]
  pest or weed control at 0.2 %: > 80%

## COc1ccc(C(C(=O)OCc2cccc(Cc3ccccc3)c2)C(C)C)cc1 (stereo not drawn) [compound 89, 3'-Benzylbenzyl-α-isopropyl-4-methoxyphenylacetate]
Oriental house flies [2]
  KT50 (50% knock-down time): 155 s

## C=CCC1=C(C)C(OC(=O)C2C(C=C(C)C)C2(C)C)CC1=O (stereo not drawn) [allethrin, reference compound]
[1]
  pest or weed control at 0.2 %: > 80%
Oriental house flies [2]
  KT50 (50% knock-down time): 186 s

## CC(C)C(C(=O)OC(C#N)c1cccc(Oc2ccccc2)c1)c1ccc(Cl)cc1 (stereo not drawn) [compound 231]
[3]
  LC50: 1.4 ng/mL (≈ 0.00333 µM)

## CCC(C(=O)OCc1coc(Cc2ccccc2)c1)c1ccc([S+](C)[O-])cc1 (stereo not drawn) [compound 26, 5'-Benzyl-3'-furylmethyl-α-ethyl-4-methylsulfoxyphenylacetate]
[1]; [5]
  pest or weed control at 0.2 %: > 80%

## Cc1ccc(C(C)C(=O)OCc2cccc(Oc3ccccc3)c2)cc1 (stereo not drawn) [compound 183]
[3]
  LC50: 88.5 ng/mL (≈ 0.255 µM)

## CCC(C(=O)OC(C#N)c1cccc(Oc2ccccc2)c1)c1ccccc1 (stereo not drawn) [compound 14, 3'-Phenoxy-α'-cyanobenzyl-α-ethylphenylacetate]
[3]
  LC50: 2.6 ng/mL (≈ 0.007 µM)
[1]; [5]
  pest or weed control at 0.2 %: > 80%

## CC(C)C(C(=O)OCc1coc(Cc2ccccc2)c1)c1cccc(Cl)c1 (stereo not drawn) [compound 204]
[3]
  LC50: 7.5 ng/mL (≈ 0.0196 µM)
Oriental house flies [4]
  Potentiation magnification of insecticidal activity by the addition of piperonyl butoxide: 4.7

## Cc1ccc(C(C(=O)OC(C#N)c2cccc(Oc3ccccc3)c2)C(C)C)cc1 (stereo not drawn) [compound 227]
[3]
  LC50: 1.9 ng/mL (≈ 0.00476 µM)

## C=C(C)C(C(=O)OCc1cccc(Cc2ccccc2)c1)c1ccc(OC)cc1 (stereo not drawn) [compound 92, 3'-Benzylbenzyl-α-isopropenyl-4-methoxyphenylacetate]
[1]; [5]
  pest or weed control at 0.2 %: > 80%

## CCC(C(=O)OCc1cccc(Oc2ccccc2)c1)c1ccc(Cl)cc1 (stereo not drawn) [compound 177]
[3]
  LC50: 7.4 ng/mL (≈ 0.0194 µM)
Oriental house flies [4]
  Potentiation magnification of insecticidal activity by the addition of piperonyl butoxide: 5.8

## COc1ccc(C(C(=O)OCc2ccc(Cc3ccccc3)s2)C(C)C)cc1 (stereo not drawn) [compound 86, 5'-Benzyl-2'-thenylmethyl-α-isopropyl-4-methoxyphenylacetate]
[1]; [5]
  pest or weed control at 0.2 %: > 80%
Oriental house flies [4]
  Potentiation magnification of insecticidal activity by the addition of piperonyl butoxide: 4.5

## C=CCC1=C(C)C(OC(=O)C(CC)c2ccco2)CC1=O (stereo not drawn) [compound 16, 2'-Allyl-3'-methyl-2'-cyclopentene-1'-one-4"-yl-α-ethyl-2-furylacetate]
[3]
  LC50: 1.4 ng/mL (≈ 0.00486 µM)

## CCC(C(=O)OCc1coc(Cc2ccccc2)c1)c1ccc(C)cc1 (stereo not drawn) [compound 102, 5'-Benzyl-3'-furylmethyl-α-ethyl-4-methylphenylacetate]
[3]
  LC50: 9.5 ng/mL (≈ 0.0273 µM)

## C=C(C)C(C(=O)OCc1csc(Cc2ccccc2)c1)c1ccc(C)cc1 (stereo not drawn) [compound 112]
[3]
  LC50: 4.6 ng/mL (≈ 0.0122 µM)

## Cc1ccc(C(C(=O)OCc2ccc(Cc3ccccc3)cc2)C(C)C)cc1 (stereo not drawn) [compound 226]
[3]
  LC50: 13.5 ng/mL (≈ 0.0362 µM)
Oriental house flies [4]
  Potentiation magnification of insecticidal activity by the addition of piperonyl butoxide: 4.5

## C=C(C)C(C(=O)OCc1coc(Cc2ccccc2)c1)c1ccc(C)cc1 (stereo not drawn) [compound 128, 5'-Benzyl-3'-furylmethyl-α-isopropenyl-4-methylphenylacetate]
[3]
  LC50: 4.7 ng/mL (≈ 0.013 µM)

## C=C(C)C(C(=O)OCc1cccc(Oc2ccccc2)c1)c1ccc(CC)cc1 (stereo not drawn) [compound 126, 3'-Phenoxybenzyl-α-isopropenyl-4-ethylphenylacetate]
[3]
  LC50: 5.6 ng/mL (≈ 0.0145 µM)

## Cl[C@H]1[C@H](Cl)[C@@H](Cl)[C@@H](Cl)[C@H](Cl)[C@H]1Cl [Lindane, lindane, reference compound]
[3]
  LC50: 220 ng/mL (≈ 0.756 µM)

## Cc1ccc(C(C(=O)OCc2coc(Cc3ccccc3)c2)C(C)C)cc1 (stereo not drawn) [compound 103, 5'-Benzyl-3'-furylmethyl-α-isopropyl-4-methylphenylacetate]
[3]
  LC50: 9.2 ng/mL (≈ 0.0254 µM)

## C#CCc1ccc(COC(=O)C(CC)c2ccccc2)cc1 (stereo not drawn) [compound 10, 4'-Propargylbenzyl-α-ethylphenylacetate]
[3]
  LC50: 3 ng/mL (≈ 0.0103 µM)

## CC(C)C(C(=O)OCc1cccc(Oc2ccccc2)c1)c1ccc(F)cc1 (stereo not drawn) [compound 210]
[3]
  LC50: 3.5 ng/mL (≈ 0.00925 µM)
Oriental house flies [4]
  Potentiation magnification of insecticidal activity by the addition of piperonyl butoxide: 4.8

## C=C(C)C(C(=O)OCc1coc(Cc2ccco2)c1)c1ccc(C)cc1 (stereo not drawn) [compound 113, 5'-Furfuryl-3'-furylmethyl-α-isopropenyl-4-methylphenylacetate]
[3]
  LC50: 5.3 ng/mL (≈ 0.0151 µM)

## CCC(C(=O)OCc1coc(Cc2ccccc2)c1)c1cccc(C)c1 (stereo not drawn) [compound 104, 5'-Benzyl-3'-furylmethyl-α-ethyl-3-methylphenylacetate]
[3]
  LC50: 12 ng/mL (≈ 0.0344 µM)

## CCC(C(=O)OCN1C(=O)C2=C(CCCC2)C1=O)c1c(C)cc(C)cc1C (stereo not drawn) [compound 27, 3',4',5',6'-Tetrahydrophthalimidomethyl-2-ethyl-2,4,6-trimethylphenylacetate]
[1]; [5]
  pest or weed control at 0.2 %: > 80%

## CCc1ccc(C(C(=O)OCc2coc(Cc3ccccc3)c2)C(C)C)cc1 (stereo not drawn) [compound 214]
[3]
  LC50: 12.7 ng/mL (≈ 0.0337 µM)

## CCC(C(=O)OCc1cccc(Oc2ccccc2)c1)c1ccc(Br)cc1 (stereo not drawn) [compound 178]
Oriental house flies [4]
  Potentiation magnification of insecticidal activity by the addition of piperonyl butoxide: 5.4

## CSc1ccc(C(C(=O)OCc2cccc(Oc3ccccc3)c2)C(C)C)cc1 (stereo not drawn) [compound 298]
[3]
  LC50: 9.7 ng/mL (≈ 0.0239 µM)

## COc1ccc(C(C(=O)OCc2cc3c(o2)CCCC3)C(C)C)cc1 (stereo not drawn) [compound 88, 4',5'-Tetramethylenefurfuryl-α-isopropyl-4-methoxyphenylacetate]
[1]; [5]
  pest or weed control at 0.2 %: > 80%
Oriental house flies [2]
  KT50 (50% knock-down time): 147 s

## Cc1ccc(C(C)C(=O)OCc2coc(Cc3ccccc3)c2)cc1 (stereo not drawn) [compound 181]
[3]
  LC50: 82 ng/mL (≈ 0.245 µM)

## C=C(C)C(C(=O)OCN1C(=O)C2=C(CCCC2)C1=O)c1ccc(OC)cc1 (stereo not drawn) [compound 90, 3',4',5',6'-Tetrahydrophthalimidomethyl-α-isopropenyl-4-methoxyphenylacetate]
[1]; [5]
  pest or weed control at 0.2 %: > 80%

## Cc1cccc(C(C(=O)OCc2coc(Cc3ccccc3)c2)C(C)C)c1 (stereo not drawn) [compound 105, 5'-Benzyl-3'-furylmethyl-α-isopropyl-3-methylphenylacetate]
[3]
  LC50: 10.5 ng/mL (≈ 0.029 µM)

## CCC(C(=O)OC1C=C(Cc2ccccc2)C(=O)C1)c1ccc(F)cc1 (stereo not drawn) [compound 191]
Oriental house flies [4]
  Potentiation magnification of insecticidal activity by the addition of piperonyl butoxide: 4.3
